Experimental data reported in patent US8815875B2 (Merck Sharp & Dohme Corp., priority 2008, dated 2014).

Target: FABP4 (Homo sapiens, UniProt P15090)
Assay: TdF (Temperature Dependence Fluorescence) assay, thermal shift, FABP4
Assay type: binding
Method in brief: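 Binding measured as ΔTm versus protein alone; binding constants derived by nonlinear fitting with ΔHL set to −7 kcal/mol and ΔCpL to zero.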

Sequence of FABP4 (P15090 whole entry, species assumed): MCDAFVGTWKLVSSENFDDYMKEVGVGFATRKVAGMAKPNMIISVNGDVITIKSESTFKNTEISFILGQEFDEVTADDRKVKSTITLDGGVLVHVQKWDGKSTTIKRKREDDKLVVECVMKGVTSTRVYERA

Row | FABP4 TdF Kd | Kd | SMILES
1 | B (0.5 ≦ B < 0.001 μM) | – | O=C(NCC1(CO)CCC1)c1c(Cl)cccc1OCc1cc(=O)n2nc(-c3ccccc3)nc2[nH]1 [47-30, 2-chloro-N-((1-(hydroxymethyl)cyclobutyl)methyl)-6-((7-oxo-2-phenyl-4,7-dihydro-[1,2,4]triazolo[1,5-a]pyrimidin-5-yl)methoxy)benzamide]
2 | B (0.5 ≦ B < 0.001 μM) | – | O=C(Nc1cc(C2CC2)n[nH]1)c1c(Cl)cccc1OCc1cc(=O)n2nc(-c3ccccc3)nc2[nH]1 [47-32, 2-chloro-N-(3-cyclopropyl-1H-pyrazol-5-yl)-6-((7-oxo-2-phenyl-4,7-dihydro-[1,2,4]triazolo[1,5-a]pyrimidin-5-yl)methoxy)benzamide]
3 | B (0.5 ≦ B < 0.001 μM) | – | O=C(NCC1(CO)COC1)c1c(Cl)cccc1OCc1cc(=O)n2nc(-c3ccccc3)nc2[nH]1 [47-34, 2-chloro-N-((3-(hydroxymethyl)oxetan-3-yl)methyl)-6-((7-oxo-2-phenyl-4,7-dihydro-[1,2,4]triazolo[1,5-a]pyrimidin-5-yl)methoxy)benzamide]
4 | B (0.5 ≦ B < 0.001 μM) | – | O=C(NC1(CO)CCC1)c1c(Cl)cccc1OCc1cc(=O)n2nc(-c3ccccc3)nc2[nH]1 [47-35]
5 | B (0.5 ≦ B < 0.001 μM) | – | CC(NC(=O)c1c(Cl)cccc1OCc1cc(=O)n2nc(-c3ccccc3)nc2[nH]1)C1CCC1 (stereo not shown) [47-36]
6 | – | ≤ 1 nM | O=C(NCC1(c2cccc(Cl)c2)CCC1)c1c(Cl)cccc1OCc1cc(=O)n2nc(-c3ccccc3)nc2[nH]1 [47-37, 2-chloro-N-((1-(3-chlorophenyl)cyclobutyl)methyl)-6-((7-oxo-2-phenyl-4,7-dihydro-[1,2,4]triazolo[1,5-a]pyrimidin-5-yl)methoxy)benzamide]
7 | – | ≤ 1 nM | COc1cccc(C2(CNC(=O)c3c(Cl)cccc3OCc3cc(=O)n4nc(-c5ccccc5)nc4[nH]3)CCC2)c1 [47-38, 2-chloro-N-((1-(3-methoxyphenyl)cyclobutyl)methyl)-6-((7-oxo-2-phenyl-4,7-dihydro-[1,2,4]triazolo[1,5-a]pyrimidin-5-yl)methoxy)benzamide]
8 | B (0.5 ≦ B < 0.001 μM) | – | Cn1ccc(NC(=O)c2c(Cl)cccc2OCc2cc(=O)n3nc(-c4ccccc4)nc3[nH]2)n1 [47-40]
9 | – | > 500 nM | CN(CC1CC1)C(=O)c1c(Cl)cccc1OCc1cc(=O)n2nc(-c3ccccc3)nc2[nH]1 [47-46]
10 | B (0.5 ≦ B < 0.001 μM) | – | CC1(NC(=O)c2c(Cl)cccc2OCc2cc(=O)n3nc(-c4ccccc4)nc3[nH]2)COC1 [47-47]
11 | B (0.5 ≦ B < 0.001 μM) | – | COc1ccccc1C1(CNC(=O)c2c(Cl)cccc2OCc2cc(=O)n3nc(-c4ccccc4)nc3[nH]2)CC1 [47-48]
12 | B (0.5 ≦ B < 0.001 μM) | – | Nc1cc(C2CC2)n(C(=O)c2c(Cl)cccc2OCc2cc(=O)n3nc(-c4ccccc4)nc3[nH]2)n1 [47-49]
13 | – | ≤ 1 nM | Nc1cc(C2CC2)nn1C(=O)c1c(Cl)cccc1OCc1cc(=O)n2nc(-c3ccccc3)nc2[nH]1 [47-50]
14 | – | ≤ 1 nM | Cc1cc(N)n(C(=O)c2c(Cl)cccc2OCc2cc(=O)n3nc(-c4ccccc4)nc3[nH]2)n1 [47-51]
15 | B (0.5 ≦ B < 0.001 μM) | – | Cc1cc(N)nn1C(=O)c1c(Cl)cccc1OCc1cc(=O)n2nc(-c3ccccc3)nc2[nH]1 [47-52]
16 | – | > 500 nM | O=C(O)c1ccccc1OCc1cc(=O)n2nc(-c3ccccc3)nc2[nH]1 [47-53]
17 | B (0.5 ≦ B < 0.001 μM) | – | Cn1nccc1NC(=O)c1ccccc1OCc1cc(=O)n2nc(-c3ccccc3)nc2[nH]1 [47-54]
18 | B (0.5 ≦ B < 0.001 μM) | – | O=C(NCC1CC1)c1ccccc1OCc1cc(=O)n2nc(-c3ccccc3)nc2[nH]1 [47-55]
19 | B (0.5 ≦ B < 0.001 μM) | – | O=C(NCC1CCC1)c1ccccc1OCc1cc(=O)n2nc(-c3ccccc3)nc2[nH]1 [47-56]

Row | FABP4 TdF Kd | Kd | SMILES
20 | – | > 500 nM | Cn1ccc(NC(=O)c2ccccc2OCc2cc(=O)n3nc(-c4ccccc4)nc3[nH]2)n1 [47-57]
21 | B (0.5 ≦ B < 0.001 μM) | – | O=C(NCC1(CO)CCC1)c1ccccc1OCc1cc(=O)n2nc(-c3ccccc3)nc2[nH]1 [47-58]
22 | B (0.5 ≦ B < 0.001 μM) | – | O=C(NCC1(CO)CCCC1)c1ccccc1OCc1cc(=O)n2nc(-c3ccccc3)nc2[nH]1 [47-59]
23 | B (0.5 ≦ B < 0.001 μM) | – | O=C(NCC1(c2ccccc2Cl)CC1)c1ccccc1OCc1cc(=O)n2nc(-c3ccccc3)nc2[nH]1 [47-60]
24 | B (0.5 ≦ B < 0.001 μM) | – | O=C(NCCC1CC1)c1ccccc1OCc1cc(=O)n2nc(-c3ccccc3)nc2[nH]1 [47-61]
25 | B (0.5 ≦ B < 0.001 μM) | – | CN(C(=O)c1ccccc1OCc1cc(=O)n2nc(-c3ccccc3)nc2[nH]1)C1CCCCC1 [47-62]
26 | B (0.5 ≦ B < 0.001 μM) | – | O=C(NC1CCCCC1)c1ccccc1OCc1cc(=O)n2nc(-c3ccccc3)nc2[nH]1 [47-63]
27 | B (0.5 ≦ B < 0.001 μM) | – | COCC1(CNC(=O)c2ccccc2OCc2cc(=O)n3nc(-c4ccccc4)nc3[nH]2)CC1 [47-64]
28 | B (0.5 ≦ B < 0.001 μM) | – | O=C(NCC1(CO)CC1)c1ccccc1OCc1cc(=O)n2nc(-c3ccccc3)nc2[nH]1 [47-65]
29 | – | > 500 nM | O=C(O)C1(OCc2cc(=O)n3nc(-c4ccccc4)nc3[nH]2)CCCCC1 [48-2, 1-((7-oxo-2-phenyl-4,7-dihydro-[1,2,4]triazolo[1,5-a]pyrimidin-5-yl)methoxy)cyclohexanecarboxylic acid]
30 | – | > 500 nM | O=C(N1CCS(=O)(=O)CC1)C1(OCc2cc(=O)n3nc(-c4ccccc4)nc3[nH]2)CCCCC1 [48-4, 4-[[1-[(4,7-dihydro-7-oxo-2-phenyl[1,2,4]triazolo[1,5-a]pyrimidin-5-yl)methoxy]cyclohexyl]carbonyl]thiomorpholine, 1,1-dioxide]
31 | – | > 500 nM | COC[C@@H]1CCCN1C(=O)C1(OCc2cc(=O)n3nc(-c4ccccc4)nc3[nH]2)CCCCC1 [48-5, (S)-5-((1-(2-(methoxymethyl)pyrrolidine-1-carbonyl)cyclohexyloxy)methyl)-2-phenyl-[1,2,4]triazolo[1,5-a]pyrimidin-7(4H)-one]
32 | B (0.5 ≦ B < 0.001 μM) | – | COC[C@H]1CCCN1C(=O)C1(OCc2cc(=O)n3nc(-c4ccccc4)nc3[nH]2)CCCCC1 [48-6, (R)-5-((1-(2-(methoxymethyl)pyrrolidine-1-carbonyl)cyclohexyloxy)methyl)-2-phenyl-[1,2,4]triazolo[1,5-a]pyrimidin-7(4H)-one]
33 | B (0.5 ≦ B < 0.001 μM) | – | O=C(N1C[C@@H]2C[C@@H]2[C@H]1CO)C1(OCc2cc(=O)n3nc(-c4ccccc4)nc3[nH]2)CCCCC1 [48-7, 5-((1-((1S,2S,5R)-2-(hydroxymethyl)-3-azabicyclo[3.1.0]hexane-3-carbonyl)cyclohexyloxy)methyl)-2-phenyl-[1,2,4]triazolo[1,5-a]pyrimidin-7(4H)-one]
34 | – | ≤ 1 nM | O=C(NC1(c2ccccc2Cl)CC1)C1(OCc2cc(=O)n3nc(-c4ccccc4)nc3[nH]2)CCCCC1 [48-8]
35 | – | ≤ 1 nM | O=C(NC1(c2cccc(Cl)c2)CC1)C1(OCc2cc(=O)n3nc(-c4ccccc4)nc3[nH]2)CCCCC1 [48-9, N-(1-(3-chlorophenyl)cyclopropyl)-1-((7-oxo-2-phenyl-4,7-dihydro-[1,2,4]triazolo[1,5-a]pyrimidin-5-yl)methoxy)cyclohexanecarboxamide]
36 | – | ≤ 1 nM | O=C(NC1(c2cccc(Cl)c2F)CC1)C1(OCc2cc(=O)n3nc(-c4ccccc4)nc3[nH]2)CCCCC1 [48-10]
37 | – | ≤ 1 nM | O=C(NCC1(CO)CCC1)C1(OCc2cc(=O)n3nc(-c4ccccc4)nc3[nH]2)CCCCC1 [48-11]
